# Data published in patent publication US20240174669A1, “CRYSTALLINE FORMS OF A PARP1 INHIBITOR” (XinThera, Inc., priority 2022, published 2024).
# Test: Purity of filtrates / degradation in bio-relevant media (FeSSIF)
# Assay type: physicochemical
# Conditions: for HPLC Purity API, Sample 1 / impurity RRT 1.74 / impurity RRT 1.91 / impurity RRT 1.95 / HPLC Purity API, Sample 2 / impurity RRT 1.09: FeSSIF filtrate, 220 nm; for HPLC Purity API, Sample 1 / impurity RRT 1.74 / impurity RRT 1.91 / impurity RRT 1.95 / impurity RRT 1.09: Sample 1; for Filtrate Purity 220 nm-24 h: 37° C., starting purity 99.26%
# Description: About 15 mg of freebase Form II was weighed into sample vials, and then 3 mL of each media was added to make suspensions, respectively. At 0.5, 2 and 24 hours, about 1 mL of each suspension was filtered, the filtrate was analyzed by HPLC and pH, and the filter cake was analyzed by XRPD. Duplicated samples were prepared for each media.
# Compared to control pH buffers, the solubility increased to ˜20 μg/mL in FaSSIF and ˜100 μg/mL in FeSSIF, possibly due to the solubilization effect of bile salt. […] Compared to FaSSIF, concentration of bile salt is 5-fold in FeSSIF. The degradation issue in FeSSIF was confirmed with another two batches (Lot #3 and Lot #2) of freebase Form II at 0.5-8 hours, as summarized in Table 12 and Table 13. Several impurities increased rapidly with time.
# HPLC analysis was performed with an Agilent HPLC 1260 series instrument.
structure (smiles),measurement,setting,value
"CNC(=O)c1ccc(N2CCN(Cc3cnc4cc(C5CC5)c(=O)[nH]c4c3)CC2)cn1 [Freebase Form II, 5-(4-((7-cyclopropyl-6-oxo-5,6-dihydro-1,5-naphthyridin-3-yl)methyl)piperazin-1-yl)-N-methylpicolinamide]",purity of filtrates,FeSSIF,decreased rapidly
same,"HPLC Purity API, Sample 1","0.5 hr, listed as Lot# 2",96.72 area %
same,impurity RRT 1.74,"0.5 hr, listed as Lot# 2",0.33 area %
same,impurity RRT 1.91,"0.5 hr, listed as Lot# 2",1.00 area %
same,impurity RRT 1.95,"0.5 hr, listed as Lot# 2",0.32 area %
same,"HPLC Purity API, Sample 1","0.5 hr, listed as Lot# 3",92.74 area %
same,impurity RRT 1.74,"0.5 hr, listed as Lot# 3",0.27 area %
same,impurity RRT 1.91,"0.5 hr, listed as Lot# 3",0.72 area %
same,impurity RRT 1.95,"0.5 hr, listed as Lot# 3",0.24 area %
same,"HPLC Purity API, Sample 2","0.5 hr, listed as Lot# 2",96.89 area %
same,"HPLC Purity API, Sample 2","0.5 hr, listed as Lot# 3",92.57 area %
same,"HPLC Purity API, Sample 1","2 hr, listed as Lot# 2",80.67 area %
same,impurity RRT 1.09,"2 hr, listed as Lot# 2",1.18 area %
same,impurity RRT 1.74,"2 hr, listed as Lot# 2",1.52 area %
same,impurity RRT 1.91,"2 hr, listed as Lot# 2",5.63 area %
same,impurity RRT 1.95,"2 hr, listed as Lot# 2",0.89 area %
same,"HPLC Purity API, Sample 1","2 hr, listed as Lot# 3",91.52 area %
same,impurity RRT 1.09,"2 hr, listed as Lot# 3",0.22 area %
same,impurity RRT 1.74,"2 hr, listed as Lot# 3",0.35 area %
same,impurity RRT 1.91,"2 hr, listed as Lot# 3",1.09 area %
same,impurity RRT 1.95,"2 hr, listed as Lot# 3",0.39 area %
same,"HPLC Purity API, Sample 2","2 hr, listed as Lot# 2",77.22 area %
same,"HPLC Purity API, Sample 2","2 hr, listed as Lot# 3",90.33 area %
same,"HPLC Purity API, Sample 1","4 hr, listed as Lot# 2",65.06 area %
same,impurity RRT 1.09,"4 hr, listed as Lot# 2",3.56 area %
same,impurity RRT 1.74,"4 hr, listed as Lot# 2",2.64 area %
same,impurity RRT 1.91,"4 hr, listed as Lot# 2",9.12 area %
same,impurity RRT 1.95,"4 hr, listed as Lot# 2",1.67 area %
same,"HPLC Purity API, Sample 1","4 hr, listed as Lot# 3",84.44 area %
same,impurity RRT 1.09,"4 hr, listed as Lot# 3",1.00 area %
same,impurity RRT 1.74,"4 hr, listed as Lot# 3",0.82 area %
same,impurity RRT 1.91,"4 hr, listed as Lot# 3",3.55 area %
same,impurity RRT 1.95,"4 hr, listed as Lot# 3",0.69 area %
same,"HPLC Purity API, Sample 2","4 hr, listed as Lot# 2",60.63 area %
same,"HPLC Purity API, Sample 2","4 hr, listed as Lot# 3",77.77 area %
same,"HPLC Purity API, Sample 1","8 hr, listed as Lot# 2",50.99 area %
same,impurity RRT 1.09,"8 hr, listed as Lot# 2",6.24 area %
same,impurity RRT 1.74,"8 hr, listed as Lot# 2",5.16 area %
same,impurity RRT 1.91,"8 hr, listed as Lot# 2",8.77 area %
same,impurity RRT 1.95,"8 hr, listed as Lot# 2",3.62 area %
same,"HPLC Purity API, Sample 1","8 hr, listed as Lot# 3",66.91 area %
same,impurity RRT 1.09,"8 hr, listed as Lot# 3",4.10 area %
same,impurity RRT 1.74,"8 hr, listed as Lot# 3",2.41 area %
same,impurity RRT 1.91,"8 hr, listed as Lot# 3",7.91 area %
same,impurity RRT 1.95,"8 hr, listed as Lot# 3",1.57 area %
same,"HPLC Purity API, Sample 2","8 hr, listed as Lot# 2",47.77 area %
same,"HPLC Purity API, Sample 2","8 hr, listed as Lot# 3",57.55 area %
same,Filtrate Purity 220 nm-24 h,FeSSIF,55%
same,Filtrate Purity 220 nm-24 h,SGF,99.28%
